Experiments:
human cell lines = test: Anti-cancer activity against human cell lines; assay type: cell-based
Bovine brain tubulin = target: T1, Bovine brain tubulin (Bos taurus, UniProt P81947+Q6B856); test: Tubulin turbidity assay (GTP-induced tubulin polymerization); assay type: biochemical
T1 construct: purchased Sigma, St. Louis, Mo; host or cells: bovine brain (tissue-purified)
Procedure: Bovine brain tubulin (Sigma, St. Louis, Mo.) was used in standard turbidity assays to test the effects of compounds COBRA-1 and COBRA-2 as well as control compounds on GTP-induced tubulin polymerization. Compounds (in 1% DMSO) were added to tubulin (1 mg/ml, 0.1M MES, 1 mM EGTA, 0.5 mM MgCl2, 0.1 mM EDTA, 2.5M glycerol, 1 μg/ml leupeptin, 1 μg/ml aprotinin, pH 6.5) followed by stimulation of polymerization with 1 mM GTP at 2 minutes and 1 mM taxol at 30 minutes. Optical density was measured using a Becton Dickinson UV spectrophotometer (350 nm) using a thermostated cuvette holder to keep the reaction at 37° C. Readings obtained from the spectro-photometer were standardized by subtracting the background absorbance of the compound in water from the sample reading following drug addition.
To test the latitude of the structure at the opposite end of the molecule from the long chain (head region), three new COBRA compounds were synthesized according to the schemes shown below: COBRA-3, COBRA-4, and COBRA-5. Each of these compounds was then tested for tubulin depolymerization activity, using the tubidity assay described in the Examples above.
Each of these compounds was assayed for effects on GTP-dependent tubulin polymerization, using the methods described above.

T1 sequence (P81947 whole entry): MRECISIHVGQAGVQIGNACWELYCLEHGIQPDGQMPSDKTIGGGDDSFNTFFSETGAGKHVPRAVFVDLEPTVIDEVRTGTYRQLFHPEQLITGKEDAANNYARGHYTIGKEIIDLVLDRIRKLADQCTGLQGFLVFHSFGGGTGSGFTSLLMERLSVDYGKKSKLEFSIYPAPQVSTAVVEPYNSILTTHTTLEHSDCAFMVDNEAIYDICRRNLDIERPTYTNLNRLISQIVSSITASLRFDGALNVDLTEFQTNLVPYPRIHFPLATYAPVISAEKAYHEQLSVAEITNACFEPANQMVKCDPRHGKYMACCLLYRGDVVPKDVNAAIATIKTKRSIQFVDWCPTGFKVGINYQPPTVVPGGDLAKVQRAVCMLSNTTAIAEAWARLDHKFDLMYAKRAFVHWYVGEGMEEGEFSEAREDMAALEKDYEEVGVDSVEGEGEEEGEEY
T1 sequence (Q6B856 whole entry): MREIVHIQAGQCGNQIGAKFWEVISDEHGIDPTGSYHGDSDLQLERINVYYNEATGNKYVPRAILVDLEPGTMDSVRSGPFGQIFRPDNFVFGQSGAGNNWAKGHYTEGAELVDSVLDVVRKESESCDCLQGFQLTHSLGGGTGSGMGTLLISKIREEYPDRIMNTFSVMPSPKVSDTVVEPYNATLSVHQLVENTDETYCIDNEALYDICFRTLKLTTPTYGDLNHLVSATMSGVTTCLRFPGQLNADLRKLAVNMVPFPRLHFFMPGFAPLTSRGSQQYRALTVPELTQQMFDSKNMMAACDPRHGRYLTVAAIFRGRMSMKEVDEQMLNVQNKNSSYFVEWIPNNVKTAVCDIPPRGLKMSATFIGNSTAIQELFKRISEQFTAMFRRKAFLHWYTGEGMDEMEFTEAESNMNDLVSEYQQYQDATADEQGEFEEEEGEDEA

Question: With `CCCCCCCCCCCCSCC(NC(C)=O)C(=O)CCl` (stereo not drawn) [COBRA-5, N-Ac-S-dodecyl-Cys Chloromethyl Ketone] as the compound, how does the “anti-cancer activity against human cell lines” value (human cell lines) read?
Answer: very potent anti-cancer activity

Question: What about the “effect on GTP-dependent tubulin polymerization (turbidity)” value (Bovine brain tubulin; 1 mg/ml tubulin, 1 mM GTP, 37° C., OD 350 nm) of the same compound?
Answer: caused partial depolymerization of tubulin and completely inhibited its polymerization in the presence of GTP

Question: What about the IC90 (Bovine brain tubulin; stated in the tubulin polymerization paragraph, assay not named) of the same compound?
Answer: 10 µM

Reference: US20020045764A1, “Tubulin binding compounds (COBRA)” (Parker Hughes Institute, priority 1998, published 2002)
